Tests used:
[1] = molecular target: T1, PccGCS (Pectobacterium carotovorum, UniProt C6D9C2); test: EnzChek pyrophosphate diguanylate cyclase turnover assay with purified protein, […] GTP; assay type: biochemical
T1 construct: gene PC1_2619; full-length PccGCS WT (His-tagged)

[2] = molecular target: T2, PccGCS (Pectobacterium carotovorum, UniProt C6D9C2, H237A/K238A); test: as above; assay type: biochemical
T2 construct: gene PC1_2619; full-length PccGCS H237A/K238A (His-tagged)
T2 sequence (C6D9C2 1-471 H237A/K238A): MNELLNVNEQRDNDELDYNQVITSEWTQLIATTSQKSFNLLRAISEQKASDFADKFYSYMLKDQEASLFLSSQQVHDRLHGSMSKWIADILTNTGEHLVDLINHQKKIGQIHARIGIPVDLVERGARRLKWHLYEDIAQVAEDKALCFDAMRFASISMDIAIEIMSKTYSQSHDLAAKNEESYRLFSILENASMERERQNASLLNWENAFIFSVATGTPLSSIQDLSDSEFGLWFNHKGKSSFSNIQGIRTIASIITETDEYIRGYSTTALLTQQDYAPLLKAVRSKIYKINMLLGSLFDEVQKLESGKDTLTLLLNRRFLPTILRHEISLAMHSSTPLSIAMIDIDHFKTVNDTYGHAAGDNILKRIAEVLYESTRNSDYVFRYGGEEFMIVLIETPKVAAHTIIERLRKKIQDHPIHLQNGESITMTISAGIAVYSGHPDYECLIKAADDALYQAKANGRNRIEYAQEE

In the case of `Nc1nc2c(ncn2[C@@H]2O[C@H](COP(=O)(O)OP(=O)(O)OP(=O)(O)O)[C@@H](O)[C@H]2O)c(=O)[nH]1` [GTP], the “EnzChek pyrophosphate diguanylate cyclase turnover assay with purified protein,” value [1] is reported as 0.759 min⁻¹ and the “EnzChek pyrophosphate diguanylate cyclase turnover assay with purified protein,” value [2] is reported as 0.0227 min⁻¹.

From article PMC7033309, “π-Helix controls activity of oxygen-sensing diguanylate cyclases” (Bioscience Reports, 2020)
